{
  "source": "patent US7264314B2",
  "about": "“Adrenocorticotropic hormone analogs and related methods” (priority 2004, dated 2007)",
  "tested_on": "ACTH-induced serum corticosterone in dexamethasone-suppressed mice",
  "assay": "in vivo Serum Corticosteroid Inhibition Assay",
  "parameters": "species or system FVB/N mice",
  "conditions": "for reduction in serum corticosterone levels: ACTH alone = 100%; for serum corticosterone level at 180 minutes: blood one hour later; for corticosterone induction as percent of that of wildtype ACTH: 1 hour after last injection",
  "description": "An in vivo Serum Corticosteroid Inhibition Assay measures the level of corticosteroid or corticosterone in the blood stream of a subject after administering a compound having a first corticosteroid-producing biological activity and a test compound. The compound having the corticosteroid-producing biological activity can be any compound known to induce a detectable increase in corticosteroid production. The test compound can be administered before the corticosteroid-producing compound, in combination with the corticosteroid-producing compound, and/or after the corticosteroid-producing compound. The corticosteroid-producing compound is preferably ACTH, but can also be an ACTH analog with a known corticosteroid-producing biological activity. By performing a series of in vivo Serum Corticosteroid Inhibition Assays using ACTH analog test compounds, ACTH analogs that inhibit the production of corticosteroid relative to the corticosteroid-producing compound used can be identified. Preferably, the ACTH analogs identified in this manner inhibit the production of corticosteroid in the presence of endogenous unmodified ACTH.\nThe in vivo Serum Corticosteroid Inhibition Assay can include sequential administration of the test compound and the corticosteroid-producing compound by the following steps: first, an agent to suppress endogenous ACTH production was administered to a mouse subject, such as an intraperitoneal injection of dexamethasone; second, after waiting a suitable period of time for suppression of endogenous ACTH production (e.g., 1.5–2.0 hours), a test compound was administered to the mouse by a suitable method, such as intraperitoneal injection; third, after waiting a suitable period of time (e.g., 1 hour) for action of the test compound, a compound with corticosteroid-producing activity can be administered to the mouse by a suitable method, such as intraperitoneal injection; and fourth, after waiting a suitable period of time for the biological activity of both administered compounds to occur (e.g., 1 hour), a blood sample was taken from the subject and the level of serum corticosterone was determined by a suitable method, such as a competitive radioimmunoassay using ^125I RIA kit (ICN, Costa Mesa, Calif.). Optionally, steps two and three can be reversed (administering the corticosteroid-producing compound first, followed by administration of the test compound). The in vivo Serum Corticosteroid Inhibition Assay can also include co-administration of the test compound and the corticosteroid-producing compound by the following steps: first, an agent to suppress endogenous ACTH production was administered to a mouse subject, such as an intraperitoneal injection of dexamethasone; second, after waiting a suitable period of time for suppression of endogenous ACTH production (e.g., 1.5–2.0 hours), the corticosteroid-producing compound and a test compound were co-administered to the mouse by a suitable method, such as intraperitoneal injection; and third, after waiting a suitable period of time for the biological activity of both administered compounds to occur (e.g., 1 hour), a blood sample was taken from the subject and the level of serum corticosterone was determined by a suitable method, such as a competitive radioimmunoassay using ^125I RIA kit (ICN, Costa Mesa, Calif.). Also, in some embodiments, the first step in any in vivo Serum Corticosteroid Inhibition Assay can be replaced by a measurement of the initial endogenous corticosteroid or corticosteroid level in the blood of the subject in the manner of step four, instead of administering the agent to suppress ACTH production. Example 2 describes murine in vivo Serum Corticosteroid Inhibition Assays in detail.\nA series of separate in vivo Serum Corticosteroid Inhibition Assays were performed to identify ACTH analogs that inhibit ACTH adrenal hormone production in vivo. […]",
  "note": "No end group written: not given here.",
  "data": [
    {"substance": "N-Ser^1-Tyr-Ser-Met-Glu^5-His-Phe-Arg-Trp-Gly^10-Lys-Pro-Val-Gly-Lys^15-Arg-Ala-Ala-Trp-Val^20-Lys-Val-Tyr-Pro-Ac (SYSMEHFRWGKPVGKRAAWVKVYP; not fully specified (C-terminus); printed as N-Ser1-Tyr-Ser-Met-Glu5-His-Phe-Arg-Trp-Gly10-Lys-Pro-Val-Gly-Lys15-Arg-Ala-Ala-Trp-Val20-Lys-Val-Tyr-Pro-Ac) [AT814]", "values": [
      {"measurement": "reduction in serum corticosterone levels", "setting": "ACTH analog 30 minutes before ACTH", "value": "~65", "unit": "%"},
      {"measurement": "serum corticosterone level at 180 minutes", "setting": "ACTH analog at 90 minutes, mACTH(1–24) at 120 minutes after dexamethasone, listed as (KKRRP15-19KRAAW) mACTH(1–24)", "value": "175 ± 27", "unit": "ng/mL"},
      {"measurement": "serum corticosterone level at 180 minutes", "setting": "ACTH analog at 90 minutes, mACTH(1–24) at 120 minutes after dexamethasone, listed as (KKRRP15-19KRMW) mACTH(1–24)", "value": "175 ± 27", "unit": "ng/mL"},
      {"measurement": "reduction in serum corticosterone levels", "setting": "ACTH analog concurrently with ACTH", "value": "~90", "unit": "%"},
      {"measurement": "serum corticosterone level at 180 minutes", "setting": "ACTH analog together with mACTH(1–24) at 120 minutes after dexamethasone", "value": "51 ± 8", "unit": "ng/mL"},
      {"measurement": "serum corticosterone level at 180 minutes", "setting": "ACTH analog together with mACTH(1–24) at 120 minutes after dexamethasone, listed as (KKRRP15-19KRAAW) mACTH(1–24)", "value": "51 ± 8", "unit": "ng/mL"},
      {"measurement": "corticosterone induction as percent of that of wildtype ACTH", "setting": "applied 30 minutes before the ACTH injection", "value": 35, "unit": "%"},
      {"measurement": "corticosterone induction as percent of that of wildtype ACTH", "setting": "applied at the same time as the ACTH injection", "value": 10, "unit": "%"}
    ]}
  ]
}
